In patent US11691960B2, “2-[thiophen-2-yl)formamido]-N-(phenyl)-2-methylpropanamide derivatives and the use thereof as medicament” (Boehringer Ingelheim International GmbH, priority 2020, dated 2023):

Tests used:
human androgen receptor = human androgen receptor (Homo sapiens (Human), UniProt P10275); experiment: Assay B: human androgen receptor luciferase reporter assay (Indigo Biosciences); assay type: cell-based; details: for Selectivity Assay B/Assay A: ratio IC50 androgen receptor / IC50 IDO1
Sequence of human androgen receptor (P10275 whole entry): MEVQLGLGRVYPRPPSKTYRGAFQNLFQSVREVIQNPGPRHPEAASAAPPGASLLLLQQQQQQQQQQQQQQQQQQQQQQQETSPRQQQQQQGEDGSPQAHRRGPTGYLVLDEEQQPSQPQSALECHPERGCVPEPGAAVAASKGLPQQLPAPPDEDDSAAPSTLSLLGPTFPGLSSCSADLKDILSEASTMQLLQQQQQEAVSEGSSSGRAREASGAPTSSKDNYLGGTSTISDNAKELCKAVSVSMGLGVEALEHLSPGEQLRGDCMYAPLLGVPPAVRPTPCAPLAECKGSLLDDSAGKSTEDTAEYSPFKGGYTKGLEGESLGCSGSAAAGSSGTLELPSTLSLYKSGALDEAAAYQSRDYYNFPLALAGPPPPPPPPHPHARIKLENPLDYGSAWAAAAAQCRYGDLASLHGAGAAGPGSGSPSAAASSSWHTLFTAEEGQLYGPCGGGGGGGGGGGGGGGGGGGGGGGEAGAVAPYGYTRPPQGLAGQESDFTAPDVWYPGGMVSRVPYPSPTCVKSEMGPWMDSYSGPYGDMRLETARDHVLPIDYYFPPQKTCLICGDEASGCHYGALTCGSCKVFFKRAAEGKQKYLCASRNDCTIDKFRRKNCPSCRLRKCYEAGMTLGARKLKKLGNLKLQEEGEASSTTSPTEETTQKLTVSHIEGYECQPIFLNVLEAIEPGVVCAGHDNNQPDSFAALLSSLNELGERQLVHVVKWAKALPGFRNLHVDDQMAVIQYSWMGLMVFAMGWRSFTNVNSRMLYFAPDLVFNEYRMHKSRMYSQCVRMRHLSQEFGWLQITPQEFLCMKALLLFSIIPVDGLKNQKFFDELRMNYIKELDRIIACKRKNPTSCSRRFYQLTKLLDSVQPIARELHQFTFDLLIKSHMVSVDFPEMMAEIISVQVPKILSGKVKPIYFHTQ
Description: Assay B. In Vitro Testing of Androgen Receptor Potency:
The human androgen receptor (AR) assay was run using Product #IB03001 from Indigo Biosciences. The cell line provided in this kit carries a reporter gene, induced upon AR stimulation. This reporter gene is cDNA encoding for beetle luciferase, a 62 kD protein originating from the North American firefly (Photinus pyralis). This luciferase catalyzes the mono-oxidation of D-luciferin yielding oxyluciferin, adenosine monophosphate, pyrophosphate, CO2, and photon emission. The luminescence intensity of the reaction is quantified using a luminometer.
To run the assay, the cells are thawed by adding pre-warmed cell recovery medium to each tube, then placed in a 37° C. water bath. 30000 viable cells in 200 μl are plated (collagen coated plates) and incubated at 37° C., ≥85% humidity, 5% CO2 for 24 hours. Media is replaced with compound screening medium. Cells are then challenged with 125 pM (EC80) 6a-Fl Testosterone and compounds are applied in half logarithmic dilutions from 10 μM to 10 nM. Assay plates are then incubated at 37° C., ≥85% humidity, 5% CO2 for 22-24 hours. Media is replaced with luciferase detection reagent and allowed 5 minutes to equilibrate prior to luminescence quantification.
Data Analysis consisted of calculating percentage of control between 100% (Negative control:6a-Fl Testosterone) and 0 (positive control: no 6a-FL Testosterone). Fitting of normalized values was made 4-Parameter sigmoidal binding curve (Log[conc]) vs. signal.

human hepatocytes = experiment: Assay D: metabolic stability in human hepatocytes; assay type: in vitro ADME; details: for Hepatocyte stability Assay D: human hepatocytes, 1 μM, % of liver blood flow, mean +− standard deviation
Protocol: Assay D. Assessment of Metabolic Stability in Human Hepatocytes
The metabolic degradation of the test compound is assayed in a hepatocyte suspension. After recovery from cryopreservation, human hepatocytes are incubated in Dulbecco's modified eagle medium supplemented with 3.5 μg glucagon/500 mL, 2.5 mg insulin/500 mL and 3.75 mg/500 mL hydrocortisone) containing 5% or 50% human serum or in absence of serum.
Following a 30 min preincubation in a cell culture incubator (37° C., 10% CO2), 5 μl of test compound solution (80 μM; derived from a 2 mM DMSO stock solution by dilution 1:25 with medium) are added into 395 μl hepatocyte suspension, resulting in a final cell density of 1 Mio cells/mL, a final test compound concentration of 1 μM, and a final DMSO concentration of 0.05%.
The cells are incubated for six hours (incubator, orbital shaker) and samples (25 μl) are removed from the incubation after 0, 0.5, 1, 2, 4 and 6 hours. Samples are transferred into acetonitrile and pelleted by centrifugation (5 min). The supernatant is transferred to a new 96-deepwell plate, evaporated under nitrogen and resuspended prior to analysis of decline of parent compound by HPLC-MS/MS.
CLint is calculated as follows: CL_INTRINSIC=k/CD×1000/60 k: slope of the regression line for parent decline [h^−1], CD: cell density of vital cells [10e6 cells/mL],
The calculated in vitro hepatic intrinsic clearance is scaled up to the intrinsic in vivo hepatic Clearance and used to predict hepatic in vivo blood clearance (CL) by the use of a liver model (well stirred model): CL_INTRINSIC_INVIVO [ml/min/kg]=(CL_INTRINSIC [μL/min/10e6 cells]×hepatocellularity [10e6 cells/g liver]×liver factor [g/kg bodyweight])/1000 CL[ml/min/kg]=CL_INTRINSIC_INVIVO [ml/min/kg]×hepatic blood flow [ml/min/kg]/(CL_INTRINSIC_INVIVO[ml/min/kg]+hepatic blood flow [ml/min/kg])
Results are expressed as percentage of hepatic blood flow: QH[%]=CL[ml/min/kg]/hepatic blood flow [ml/min/kg])
Hepatocellularity, human: 120×10e6 cells/g liver
Liver factor, human: 25.7 g/kg bodyweight
Blood flow, human: 20.7 ml/(min×kg)

human Factor Xa = human Factor Xa (Homo sapiens (Human), UniProt P00742); experiment: Assay C: human Factor Xa chromogenic substrate assay; assay type: biochemical; details: for IC50: human Factor Xa 0.86 nM, chromogenic substrate S2765; for Selectivity Assay C/Assay A: ratio IC50 Factor Xa / IC50 IDO1
Sequence of human Factor Xa (P00742 235-488): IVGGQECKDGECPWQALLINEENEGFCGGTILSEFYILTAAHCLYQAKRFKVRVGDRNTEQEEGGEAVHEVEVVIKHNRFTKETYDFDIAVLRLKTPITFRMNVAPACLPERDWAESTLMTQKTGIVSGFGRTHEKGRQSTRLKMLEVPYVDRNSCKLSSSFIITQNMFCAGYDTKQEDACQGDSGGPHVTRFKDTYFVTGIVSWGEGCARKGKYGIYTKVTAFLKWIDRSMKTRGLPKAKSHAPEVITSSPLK
Sequence of human Factor Xa (P00742 41-179 partner): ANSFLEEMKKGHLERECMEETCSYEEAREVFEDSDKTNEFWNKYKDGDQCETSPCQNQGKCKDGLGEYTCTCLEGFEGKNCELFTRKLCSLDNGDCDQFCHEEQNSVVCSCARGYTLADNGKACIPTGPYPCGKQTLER
Protocol: Assay C. In Vitro Testing of Human Factor Xa Potency:
Measurement of active human Factor Xa using a specific chromogenic substrate which is labeled with a p-nitro-anilino group (pNA). The cleavage in between the binding of the peptide substrate and the pNA-group is followed by a color change, which can be detected at 405 nm. The amount of cleaved substrate is directly proportional to the amount of active Xa.
[…] (100 U) human Factor Xa (Enzyme Research Laboratories; HFXa1011) were solved in 0.444 ml H2O (Millipore), which accords to a stock solution of 19.28 μM or 225 U/ml. Further dilutions were made in the assay buffer (Tris 100 mM, NaCL 150 mM, adjusted to a pH of 7.8 with HCL, containing 0.1% BSA and 0.05% Tween20). 25 mg (1 vial) of the chromogenic substrate S2765 (Chromogenix; S2765) was solved in 3.5 ml H2O (Millipore) to achieve a stock solution of 10 mM.
Compounds were solved and diluted in DMSO where the final dilution in the assay is 1:10 resulting in a final concentration of 1% DMSO.
• the prefinal dilution step was 1:10 in the assay buffer containing 11% DMSO resulting in 10% DMSO • final dilution in the assay is 1:10 resulting in a final concentration of 1% DMSO
Compounds were tested at final concentrations of 10 μM to 0.003 nM or lower. 5 μl human factor Xa (final concentration 0.86 nM), 2 μl compound dilution or assay buffer (containing 10% DMSO) and 8 μl assay buffer were pipetted in triplicates into a 384-well plate and incubated in the Thermomix at 24° C. for 10 minutes.
After addition of 5 μl chromogenic substrate (final concentration 0.5 mM) the enzyme-substrate reaction started and the kinetic measurement with the SpectraMax Monochromator was started within 1-2 minutes. • Parameter of measurement: (Spectra ax, Monochromator) • Absorbance; 1.LM 405 nM • Kinetic: 16 min each 2nd minute (9 times) • Negative Control (NC) 5 μl human factor Xa+10 μl assay buffer+5 μl Substrate • Positive Control (PC): 5 μl human factor Xa+2 μl Nafamostat (commercially available, final concentration: 1 μM)+8 μl assay buffer+5 μl Substrate • Blank (optional): 15 μl assay buffer+5 μl Substrate
Calculation of IC50, KI and the % effect at the highest concentration (Ratio)
For the calculation the average of the Vmax-values in between 120 sec to 720 sec were taken.
A x/y-Plot was created: x=log (M, Compound); y=vmax (drfu/min)
The data were analyzed with the curve fitting model: log (inhibitor) vs. response—Variable slope (four parameters)
The results of this fit were Top, Bottom, Log (IC50, M), Hillslope and IC50 (M)

Hepatocyte stability Assay D (human hepatocytes) | IC50 (human Factor Xa) | Selectivity Assay C/Assay A (human Factor Xa) | IC50 (human androgen receptor; challenge with 125 pM (EC80) 6a-Fl Testosterone, mean +− standard deviation) | inhibition of the human Factor Xa enzyme (in words) (human Factor Xa) | Structure (SMILES) | Selectivity Assay B/Assay A (human androgen receptor) | antiandrogenic activity (in words) (human androgen receptor) | metabolic stability in human hepatocytes (in words) (human hepatocytes)
<4.1 % QH | > 10 µM | >57 |  |  | CC(C)(NC(=O)c1ccc(Br)s1)C(=O)Nc1ccc(Cl)c(F)c1 [Example 1, 2-[(5-bromothiophen-2-yl)formamido]-N-(4-chloro-3-fluorophenyl)-2-methylpropanamide] | 43 |  | 
<4.1 % QH | > 10 µM | >52 | > 10 µM |  | CC(C)(NC(=O)c1ccc(Br)s1)C(=O)Nc1ccc(Br)cc1 [Example 2, 2-[(5-bromothiophen-2-yl)formamido]-N-(4-bromophenyl)-2-methylpropanamide] | >52 |  | 
 |  |  |  |  | CC(C)(NC(=O)c1cccs1)C(=O)Nc1ccc(C#N)c(C(F)(F)F)c1 [WO98/22432 example 53] | 0.7 | have antiandrogenic activity | very low metabolic stability
 |  |  |  |  | Cc1ccc(C(=O)NC(C)(C)C(=O)Nc2ccc(C#N)c(C(F)(F)F)c2)s1 [WO98/22432 example 86] | 4.9 | have antiandrogenic activity | very low metabolic stability
 | 0.429 µM | 0.37 |  | inhibits the human Factor Xa enzyme | CC1CCC(C)N1c1ccc(NC(=O)C(C)(C)NC(=O)c2ccc(Cl)s2)cc1 (stereo not shown) [WO2005/111013 Ex. 22] |  |  | medium metabolic stability
